From ChEMBL document CHEMBL5113489, “Design, synthesis, and biological evaluation of membrane-active honokiol derivatives as potent antibacterial agents” (Eur J Med Chem, 2022)
Active and inactive are the calls of the source. The calls are words filed in the database; no cut-off is given here.

Tests used:
Staphylococcus aureus [1] = assay: Antibacterial activity against Staphylococcus aureus ATCC 25923; assay type: functional
Staphylococcus aureus [2] = assay: Antibacterial activity against Staphylococcus aureus ATCC 43300; assay type: functional
Bacillus subtilis = assay: Antibacterial activity against Bacillus subtilis ATCC 9372; assay type: functional
Escherichia coli [3] = assay: Antibacterial activity against Escherichia coli ATCC 25922 assessed as bacterial killing at 4 x MIC incubated for 9 hrs and measured by time-kill kinetic study; assay type: functional
Escherichia coli [4] = assay: Antibacterial activity against Escherichia coli ATCC 25922 assessed as bacterial killing at 8XMIC incubated for 3 hrs and measured by time-kill kinetic study; assay type: functional
Staphylococcus aureus [5] = assay: Anti-biofilm activity in Staphylococcus aureus ATCC 43300 assessed as inhibition of biofilm formation at 0.25 ug/ml; assay type: functional
Staphylococcus aureus [6] = assay: Anti-biofilm activity in Staphylococcus aureus ATCC 43300 assessed as inhibition of biofilm formation at 1 ug/ml; assay type: functional
Escherichia coli [7] = assay: Anti-biofilm activity in Escherichia coli ATCC 25922 assessed as inhibition of biofilm formation at 2 ug/ml; assay type: functional
Escherichia coli [8] = assay: Anti-biofilm activity in Escherichia coli ATCC 25922 assessed as inhibition of biofilm formation at 4 ug/ml; assay type: functional
Escherichia coli [9] = assay: Anti-biofilm activity in Escherichia coli ATCC 25922 assessed as inhibition of biofilm formation at 8 ug/ml; assay type: functional
Escherichia coli [10] = assay: Anti-biofilm activity in Escherichia coli ATCC 25922 assessed as inhibition of biofilm formation at 32 ug/ml; assay type: functional
Staphylococcus aureus [11] = assay: Anti-biofilm activity in Staphylococcus aureus ATCC 43300 assessed as disruption rate of biofilm at 0.5 ug/ml measured by crystal violet staining method; assay type: functional; settings: dose 0.5 µg/ml
Staphylococcus aureus [12] = assay: Anti-biofilm activity in Staphylococcus aureus ATCC 43300 assessed as disruption rate of biofilm at 1 ug/ml measured by crystal violet staining method; assay type: functional; settings: dose 1 µg/ml
Staphylococcus aureus [13] = assay: Anti-biofilm activity in Staphylococcus aureus ATCC 43300 assessed as disruption rate of biofilm at 8 ug/ml measured by crystal violet staining method; assay type: functional; settings: dose 8 µg/ml
Escherichia coli [14] = assay: Anti-biofilm activity in Escherichia coli ATCC 25922 assessed as disruption rate of biofilm at 2 ug/ml measured by crystal violet staining method; assay type: functional; settings: dose 2 µg/ml
Escherichia coli [15] = assay: Anti-biofilm activity in Escherichia coli ATCC 25922 assessed as disruption rate of biofilm at 4 ug/ml measured by crystal violet staining method; assay type: functional; settings: dose 4 µg/ml
Cell membrane = assay: Induction of cytoplasmic membrane depolarization in Escherichia coli ATCC 25922 assessed as increase in fluorescence intensity at 1 to 8 times MIC measured by DiSC3-5 dye based fluorescence method; assay type: subcellular
[16] = Cytotoxicity against human HepG2 cells assessed as cell viability at 4 ug/ml measured by SRB assay; assay type: toxicity, cell-based; settings: at 4 µg/mL, read-out: Activity
[17] = Cytotoxicity against human HepG2 cells assessed as cell viability at 64 ug/ml measured by SRB assay; assay type: toxicity, cell-based; settings: at 64 µg/mL, read-out: Activity
Staphylococcus aureus [18] = assay: In vivo antibacterial activity against Staphylococcus aureus ATCC 43300 in septicemia mouse model assessed as reduction in bacterial load in spleen at 10 mg/kg, administered every 12 hrs for 3 days; assay type: functional; design: scale not given: the % may be the effect or the level left
Staphylococcus aureus [19] = assay: In vivo antibacterial activity against Staphylococcus aureus ATCC 43300 in septicemia mouse model assessed as reduction in bacterial load in kidney at 10 mg/kg, administered every 12 hrs for 3 days; assay type: functional; design: scale not given: the % may be the effect or the level left
Staphylococcus aureus [20] = assay: In vivo antibacterial activity against Staphylococcus aureus ATCC 43300 in septicemia mouse model assessed as log reduction in bacterial load in spleen at 10 mg/kg, administered every 12 hrs for 3 days; assay type: functional
[21] = Toxicity in septicemia mouse model infected with Staphylococcus aureus ATCC 43300 assessed as effect on kidney at 5 to 10 mg/kg, administered every 12 hrs for 3 days measured by histopathological analysis; assay type: organism-based; settings: in vivo, dose 5-10 mg/kg

**Q.** With C=CCc1ccc(OCCC[N+](C)(C)CCCCCC)c(-c2ccc(OCCC[N+](C)(C)CCCCCC)c(CC=C)c2)c1.[Br-].[Br-] as the compound, how does the MIC (Staphylococcus aureus [1]) read?
**A.** Its MIC is 2 µg/mL.

**Q.** And the MIC (Staphylococcus aureus [2])?
**A.** Its MIC is 1 µg/mL.

**Q.** What about the MIC (Bacillus subtilis) of the same compound?
**A.** The MIC was 1 µg/mL.

**Q.** And the Activity (Escherichia coli [3])?
**A.** Its Activity is “>=99%”.

**Q.** And the Activity (Escherichia coli [4])?
**A.** Its Activity is 100%.

**Q.** What about the inhibition at 0.25 µg/mL (Staphylococcus aureus [5]) of the same compound?
**A.** The inhibition at 0.25 µg/mL was 4.06%.

**Q.** And the inhibition at 1 µg/mL (Staphylococcus aureus [6])?
**A.** The inhibition at 1 µg/mL was 12.9%.

**Q.** What about the inhibition at 2 µg/mL (Escherichia coli [7]) of the same compound?
**A.** Its inhibition at 2 µg/mL is 24.3%.

**Q.** And the inhibition at 4 µg/mL (Escherichia coli [8])?
**A.** The inhibition at 4 µg/mL was 35.3%.

**Q.** And the inhibition at 8 µg/mL (Escherichia coli [9])?
**A.** The inhibition at 8 µg/mL was 49.3%.

**Q.** And the inhibition at 32 µg/mL (Escherichia coli [10])?
**A.** Its inhibition at 32 µg/mL is 87.4%.

**Q.** And the Activity (Staphylococcus aureus [11])?
**A.** Its Activity is 5.22%.

**Q.** And the Activity (Staphylococcus aureus [12])?
**A.** The Activity was 9.59%.

**Q.** And the Activity (Staphylococcus aureus [13])?
**A.** Its Activity is 28.56%.

**Q.** And the Activity (Escherichia coli [14])?
**A.** The Activity was 15.1%.

**Q.** What about the Activity (Escherichia coli [15]) of the same compound?
**A.** The Activity was 27.99%.

**Q.** And the Activity (Cell membrane)?
**A.** The Activity was “Active”.

**Q.** And the viability at 4 ug/ml [16]?
**A.** The viability at 4 ug/ml was 94.7%.

**Q.** What about the viability at 64 ug/ml [17] of the same compound?
**A.** Its viability at 64 ug/ml is 55.2%.

**Q.** And the Activity (Staphylococcus aureus [18])?
**A.** Its Activity is 99.3%.

**Q.** What about the Activity (Staphylococcus aureus [19]) of the same compound?
**A.** Its Activity is 98.7%.

**Q.** And the “log(activity)” value (Staphylococcus aureus [20])?
**A.** The value was 2.19.

**Q.** What about the Activity [21] of the same compound?
**A.** Its Activity is “Non-Toxic”.
